Results reported in patent publication US10689377B2 (Mirati Therapeutics, Inc., priority 2017, dated 2020).

Biological target: KRas G12C (Homo sapiens, UniProt P01116, G12C)
Test: Cellular inhibition of KRas G12C measured by Phospho-ERK in NCI-H358 cells
Assay type: cell-based
Details: pERK(Thr202/Tyr204) normalized with GAPDH, NCI-H358 cells, 3 hours; read-out: IC50
Procedure, shortened: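 NCI-H358 cells were allowed to attach for 8-12 hours, then exposed to compounds for 3 hours at 0.5% DMSO final. After formaldehyde fixation and methanol permeabilization, phospho-ERK (Thr202/Tyr204) was detected by in-cell immunofluorescence and normalized to GAPDH; IC50 came from a 4-parameter fit of percent-of-DMSO values.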

KRas G12C, sequence (P01116 1-188 isoform P01116-2 G12C): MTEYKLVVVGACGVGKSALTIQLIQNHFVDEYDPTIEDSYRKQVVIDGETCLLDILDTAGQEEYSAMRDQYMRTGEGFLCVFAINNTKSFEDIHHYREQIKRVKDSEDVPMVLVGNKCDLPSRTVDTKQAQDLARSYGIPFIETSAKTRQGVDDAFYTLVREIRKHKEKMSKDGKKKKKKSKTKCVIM

| Compound | IC50 [µM] |
| --- | --- |
| C=CC(=O)N1CCN(c2nc(OCCCN3CCOCC3)nc3c2CCN(c2cc(O)cc4ccccc24)C3)C(CO)C1 (stereo not shown) [Example 168, 1-(3-(hydroxymethyl)-4-(7-(3-hydroxynaphthalen-1-yl)-2-(3-morpholinopropoxy)-5,6,7,8-tetrahydropyrido[3,4-d]pyrimidin-4-yl)piperazin-1-yl)prop-2-en-1-one] | > 1 |
| C=CC(=O)N1CCN(c2nc(OC[C@@H]3CCCN3C)nc3c2CCN(c2cc(O)cc4ccccc24)C3)C(CO)C1 (stereo partly drawn) [Example 169, 1-[3-(hydroxymethyl)-4-[7-(3-hydroxy-1-naphthyl)-2-[[(2S)-1-methylpyrrolidin-2-yl]methoxy]-6,8-dihydro-5H-pyrido [3,4-d]pyrimidin-4-yl]piperazin-1-yl]prop-2-en-1-one] | 0.0001 to 1 |
| C=CC(=O)N1CCN(c2nc(OCCN(C)C)nc3c2CCN(c2cc(O)cc4ccccc24)C3)C(CCO)C1 (stereo not shown) [Example 172, 1-(4-(2-(2-(dimethylamino)ethoxy)-7-(3-hydroxynaphthalen-1-yl)-5,6,7,8-tetrahydropyrido[3,4-d]pyrimidin-4-yl)-3-(2-hydroxyethyl)piperazin-1-yl)prop-2-en-1-one] | > 1 |
| C=CC(=O)N1CCN(c2nc(OC[C@H]3CCC(C)(C)N3)nc3c2CCN(c2cc(O)cc4ccccc24)C3)CC1 [Example 174, (R)-1-(4-(2-((5,5-dimethylpyrrolidin-2-yl)methoxy)-7-(3-hydroxynaphthalen-1-yl)-5,6,7,8-tetrahydropyrido[3,4-d]pyrimidin-4-yl)piperazin-1-yl)prop-2-en-1-one] | > 1 |
| C=CC(=O)N1CCN(c2nc(OCCCO)nc3c2CCN(c2cc(O)cc4ccccc24)C3)CC1 [Example 184, 1-[4-[7-(3-hydroxy-1-naphthyl)-2-(3-hydroxypropoxy)-6,8-dihydro-5H-pyrido[3,4-d]pyrimidin-4-yl]piperazin-1-yl]prop-2-en-1-one] | > 1 |
| C=CC(=O)N1CCN(c2nc(OCCCN3C[C@H]4C[C@@H]3CO4)nc3c2CCN(c2cc(O)cc4ccccc24)C3)CC1 [Example 185, 1-(4-(2-(3-((1R,4R)-2-oxa-5-azabicyclo[2.2.1]heptan-5-yl)propoxy)-7-(3-hydroxynaphthalen-1-yl)-5,6,7,8-tetrahydropyrido[3,4-d]pyrimidin-4-yl)piperazin-1-yl)prop-2-en-1-one] | 0.0001 to 1 |
| C=CC(=O)N1CCN(c2nc(-c3cccc(CN4CCOCC4)c3)nc3c2CCN(c2cc(O)cc4ccccc24)C3)CC1 [Example 186] | > 1 |
| C=CC(=O)N1CCN(c2nc(OCC3COCCN3C)nc3c2CCN(c2cc(O)cc4ccccc24)C3)CC1 (stereo not shown) [Example 194, 1-(4-(7-(3-hydroxynaphthalen-1-yl)-2-((4-methylmorpholin-3-yl)methoxy)-5,6,7,8-tetrahydropyrido[3,4-d]pyrimidin-4-yl)piperazin-1-yl)prop-2-en-1-one] | > 1 |

The next lines start with the values.

| IC50 [µM] | Compound |
| --- | --- |
| 0.0001 to 1 | C=CC(=O)N1CCN(c2nc(OCCN(C)C)nc3c2CCN(c2cc(O)cc4ccccc24)C3)CC1CC#N (stereo not shown) [Example 170, 2-(1-acryloyl-4-(2-(2-(dimethylamino)ethoxy)-7-(3-hydroxynaphthalen-1-yl)-5,6,7,8-tetrahydropyrido[3,4-d]pyrimidin-4-yl)piperazin-2-yl)acetonitrile] |
| 0.0001 to 1 | C=CC(=O)N1CCN(c2nc(OCCN(C)C)nc3c2CCN(c2cc(O)cc4ccccc24)C3)C[C@@H]1CC#N [Example 176, 2-[(2S)-4-[2-[2-(dimethylamino)ethoxy]-7-(3-hydroxy-1-naphthyl)-6,8-dihydro-5H-pyrido[3,4-d]pyrimidin-4-yl]-1-prop-2-enoyl-piperazin-2-yl] acetonitrile] |
| 0.0001 to 1 | C=CC(=O)N1CCN(c2nc(OC[C@H]3CCCN3C)nc3c2CCN(c2cc(O)cc4ccccc24)C3)CC1CC#N (stereo partly drawn) [Example 178, 2-[4-[7-(3-hydroxy-1-naphthyl)-2-[[(2R)-1-methylpyrrolidin-2-yl]methoxy]-6,8-dihydro-5H-pyrido[3,4-d]pyrimidin-4-yl]-1-prop-2-enoyl-piperazin-2-yl]acetonitrile] |
| 0.0001 to 1 | C=CC(=O)N1CCN(c2nc(OC[C@@H]3CCN(C)C3)nc3c2CCN(c2cc(O)cc4ccccc24)C3)CC1CC#N (stereo partly drawn) [Example 179, 2-[4-[7-(3-hydroxy-1-naphthyl)-2-[[(3R)-1-methylpyrrolidin-3-yl]methoxy]-6,8-dihydro-5H-pyrido[3,4-d]pyrimidin-4-yl]-1-prop-2-enoyl-piperazin-2-yl]acetonitrile] |
| > 1 | C=CC(=O)N1CCN(c2nc(OCCCN3C[C@@H]4C[C@H]3CO4)nc3c2CCN(c2c(C)ccc4[nH]ncc24)C3)CC1 [Example 181, 1-(4-(2-(3-((1S,4S)-2-oxa-5-azabicyclo[2.2.1]heptan-5-yl)propoxy)-7-(5-methyl-1H-indazol-4-yl)-5,6,7,8-tetrahydropyrido[3,4-d]pyrimidin-4-yl)piperazin-1-yl)prop-2-en-1-one] |
| 0.0001 to 1 | C=CC(=O)N1CCN(c2nc(OC[C@H]3CCN(C)C3)nc3c2CCN(c2cc(O)cc4ccccc24)C3)CC1 [Example 188, (S)-1-(4-(7-(3-hydroxynaphthalen-1-yl)-2-((1-methylpyrrolidin-3-yl)methoxy)-5,6,7,8-tetrahydropyrido[3,4-d]pyrimidin-4-yl)piperazin-1-yl)prop-2-en-1-one] |
| > 1 | C=CC(=O)N1CCN(c2nc(OCC3CCN(Cc4ccccc4)C3)nc3c2CCN(c2cc(O)cc4ccccc24)C3)CC1 (stereo not shown) [Example 189, 1-(4-(2-((1-benzylpyrrolidin-3-yl)methoxy)-7-(3-hydroxynaphthalen-1-yl)-5,6,7,8-tetrahydropyrido[3,4-d]pyrimidin-4-yl)piperazin-1-yl)prop-2-en-1-one] |
| 0.0001 to 1 | C=CC(=O)N1CCN(c2nc(OCC3CCN(C4CC4)C3)nc3c2CCN(c2cc(O)cc4ccccc24)C3)CC1 (stereo not shown) [Example 190, 1-(4-(2-((1-cyclopropylpyrrolidin-3-yl)methoxy)-7-(3-hydroxynaphthalen-1-yl)-5,6,7,8-tetrahydropyrido[3,4-d]pyrimidin-4-yl)piperazin-1-yl)prop-2-en-1-one] |
| > 1 | C=CC(=O)N1[C@H](C)CN(c2nc(OCCCN3CCOCC3)nc3c2CCN(c2cc(O)cc4ccccc24)C3)C[C@@H]1C [Example 191, 1-((2S,6R)-4-(7-(3-hydroxynaphthalen-1-yl)-2-(3-morpholinopropoxy)-5,6,7,8-tetrahydropyrido[3,4-d]pyrimidin-4-yl)-2,6-dimethylpiperazin-1-yl)prop-2-en-1-one] |
| 0.0001 to 1 | C=CC(=O)N1CCN(c2nc(OC[C@@H]3CCCN(C)C3)nc3c2CCN(c2cc(O)cc4ccccc24)C3)CC1 [Example 192, (R)-1-(4-(7-(3-hydroxynaphthalen-1-yl)-2-((1-methylpiperidin-3-yl)methoxy)-5,6,7,8-tetrahydropyrido[3,4-d]pyrimidin-4-yl)piperazin-1-yl)prop-2-en-1-one] |
| 0.0001 to 1 | C=CC(=O)N1CCN(c2nc(OCC3CN(C)CCO3)nc3c2CCN(c2cc(O)cc4ccccc24)C3)CC1 (stereo not shown) [Example 193, 1-(4-(7-(3-hydroxynaphthalen-1-yl)-2-((4-methylmorpholin-2-yl)methoxy)-5,6,7,8-tetrahydropyrido[3,4-d]pyrimidin-4-yl)piperazin-1-yl)prop-2-en-1-one] |
